{
  "source": "patent US20230324382A1",
  "about": "“ANTIPHOSPHOLIPID ANTIBODIES FOR THE DIAGNOSIS OF LYME DISEASE” (Trustees of Tufts College, priority 2022, published 2023)",
  "key": {"E. coli": {"system": "E. coli", "test": "Incorporation of NBD-PC, other species", "assay_type": "cell-based, Escherichia coli MG1655", "conditions": "25 μM NBD-PC, 4 hours", "protocol": "(§1) Cells were grown to a stationary phase (5 days) in BSK and then pelleted (5 minutes at 3220 g), washed once in an equal volume of PBS, and resuspended in an equal volume of dBSK. The cell suspension (1 mL) was added to nitrobenzoxadiazole-labeled (NBD-labeled) phospholipids (Avanti) to 25 μM. At hourly intervals, the cells were pelleted (5 minutes at 18,800 g), washed 3 times in 1 mL PBS, and resuspended in 100 μL PBS. The suspensions were transferred onto clear-bottomed, opaque 96-well plates (Corning), and fluorescence was recorded at excitation 460 nm/emission 540 nm (Ex460/Em540). Staphylococcus aureus 502a and Escherichia coli MG1655 were grown overnight in tryptic soy broth (TSB): tryptone (17.0 g/L), soytone (3.0), glucose (2.5), sodium chloride (5.0), and dipotassium phosphate (2.5). Incorporation of NBD-phospholipids was carried out in TSB, with subsequent washing and measurement as above.\n(§2) After fluorescence measurements, 5 μL cell suspensions were spotted onto glass slides and fixed with 5 μL ProLong Gold (Thermo Fisher Scientific) with DAPI. […] For all 3 bacterial species imaged, the laser power was calibrated such that minimal autofluorescence was detected in unlabeled cells prior to imaging of the labeled cells."}, "B. burgdorferi": {"system": "B. burgdorferi", "test": "Retention of NBD-PC in the membrane after transfer to rich medium", "assay_type": "cell-based, Borrelia burgdorferi", "description": "FIG. 12 is a graph illustrating that phospholipids are retained in the membrane in the absence of an environmental source. B. burgdorferi was labelled with NBD-PC in lipid-depleted dBSK medium for four hours, washed, and resuspended in rich medium. […] Points are the mean of three biological replicates, with error bars the standard deviation.\nThis is indicative of nonspecific uptake and is consistent with a model of random diffusion into the membrane. Fluorescence was detectable for up to 4 days after the initial labeling, with a half-life of approximately 1 day (FIG. 12)."}, "S. aureus": {"system": "S. aureus", "test": "Incorporation of NBD-PC, other species", "assay_type": "cell-based, Staphylococcus aureus 502a", "conditions": "25 μM NBD-PC, 4 hours", "protocol": "as §1, §2"}},
  "data": [
    {"substance": "NBD-PC", "values": [
      {"measurement": "entry of fluorescent phospholipid into membranes", "setting": "E. coli", "result": "did not enter the membranes"},
      {"measurement": "fluorescence intensity as % of D0", "setting": "B. burgdorferi; day 1", "result": 56, "unit": "%"},
      {"measurement": "fluorescence intensity as % of D0", "setting": "B. burgdorferi; day 4", "result": "~7", "unit": "%"},
      {"measurement": "entry of fluorescent phospholipid into membranes", "setting": "S. aureus", "result": "did not enter the membranes"}
    ]}
  ]
}
